Measurements taken from patent US20230063321A1, “Methods for Treating Inflammatory Bowel Diseases with alpha4beta7 Integrin Antagonists” (Protagonist Therapeutics, Inc., priority 2020, published 2023).
In brackets after ≈: the same amount, converted by molar mass. Several values for one entry are separate records, joined by “and”; a condition that tells them apart may be missing. Identical values can stand only once. Entries after “also recorded” stand apart in the source; their conditions may differ. Numbered stars: 1 amine (or outer) side, 2 acyl side, 3 side chain; on linkers, the order of the positions; unused ones are H or OH. Bridge positions count the residues as written; N and C are the ends. Square brackets hold non-standard residues; d marks the D form. Peptide text beside a SMILES is read from it. I, II: the chains in the order shown. ξ: configuration not given here. Phe(4-tBu) = CC(C)(C)c1ccc(C[C@H](N)C(=O)O)cc1; Diglycolyl = O=C(COCC(=O)[*:2])[*:1]; NMeR = CN[C@@H](CCCNC(=N)N)C(=O)O; β3hE = N[C@@H](CCC(=O)O)CC(=O)O; Thr(3ξ) = CC(O)[C@H](N)C(=O)O; X1 = O=C(c1ccccc1C[*:2])[*:1]; Pen = CC(C)(S)[C@H](N)C(=O)O

What was measured:
α4β7 receptor occupancy = target: T1, α4β7 receptor occupancy (Homo sapiens, UniProt P13612+P26010); assay: Plasma concentration-receptor occupancy relationship, sigmoid Emax (Hill) model; conditions: in vivo
T1 construct: the amount of α4β7 expression on the cell surface of circulating lymphocytes; endogenous in cells; host or cells: heparinized whole blood of healthy volunteers

[1] = Systemic absorption in animal studies; type: in vivo; conditions: oral
[2] = test system: integrin β7, integrin α4 and CCR9 on cultured CD3+ cells; assay: Gut homing receptor expression on T cells cultured with ATRA; type: cell-based, B6.SJL mice; conditions: 100 and 1000 nM in culture
Protocol: Purified CD3+ cells were isolated from B6.SJL (CD45.1+) donor mice and cultured in the presence of anti-CD3/anti-CD28 beads and IL-2 to induce T cell activation and proliferation. In some culture conditions, Compound A and/or ATRA were added. To track the cells in vivo, ATRA− and ATRA+ cells were labeled with CMFDA and CTFR respectively. These labeled cells were then co-injected into C57BL/6 (CD45.2+) recipient mice.
Eighteen (18) B6.SJL (CD45.1+) donor mice were acclimated for 3 to 9 weeks before the start of the study and were 11 to 16 weeks old at culture setup (Day 0). On Day 0, spleen and lymph node cells were isolated from donor mice and pooled. CD3+ cells were enriched using […] Technologies kit catalog number 19851. Purity of enriched cells was confirmed by flow cytometry.
Approximately 44% of the cells were then cultured at 1.5×10^6/mL in the presence of anti-CD3/CD28 beads (Dynabeads, ThermoFisher 11453D), with a 1:1 cell to bead ratio (ATRA−, per Table 4 below). […] All-trans retinoic acid (ATRA) was then added to these cultures at a concentration of 0.1 μM.
On Day, 1 IL-2 was added to all cultures to reach a concentration of 30 U/mL.

[3] = Oral bioavailability in cynomolgus monkeys; conditions: cynomolgus monkey, in vivo
α4β7 = target: T2, α4β7 (Homo sapiens, UniProt P13612+P26010); assay: α4β7 internalization / surface expression by flow cytometry; type: cell-based
T2 construct: endogenous in cells
Text: Blood samples from human donors were obtained from the Stanford Blood Center (Stanford, Calif.) under an RB-approved research protocol. Blood was drawn into BD Vacutainer sodium heparin blood collection tubes (BD Biosciences, Cat #362753). Peripheral blood mononuclear cells (PBMCs) were isolated from blood using a SepMate-50 tube and LymphoPrep per the manufacturer's protocol. CD4^+ T memory cells were enriched after PBMC isolation, using an EasySep kit (StemCell Technologies) per the manufacturer's protocol.
After incubation, an aliquot of cells from each reaction was stained for α4β7 expression.
After incubation, cells were washed extensively to remove excess peptide. For each reaction, an aliquot of cells was stained for α4β7 expression, while a separate aliquot was tested for adhesion to MAdCAM1.
An aliquot of cells were collected before and 24 h post peptide addition and stained for α4β7 expression. Afterwards, cells were extensively washed to remove excess peptide and incubated in fresh complete culture medium (without MnCl2) for an additional seven days. On day 1, 2, 4, 5, and 7 days after peptide washout, aliquots were stained for α4β7 expression.
Following peptide incubation, an aliquot of each reaction was stained for surface expression of α4β7 in preparation for flow cytometry. Cells were stained at 4° C. for 30 minutes, washed twice in DPBS containing 0.5% BSA (PBS/BSA), incubated with streptavidin BV421 (diluted 1:1000) at 4° C. for 30 minutes, washed twice in PBS/BSA, and then resuspended in PBS/BSA for analysis. Where relevant, a “fluorescence minus one” (FMO) sample was used as the staining control.
Samples were analyzed by flow cytometry on a BD (Franklin Lakes, N.J.) FACSVerse flow cytometer equipped with the following lasers: 405 nm (violet), 488 nm (blue), 561 nm (yellow-green), and 640 nm (red). CD4^+ T memory cells were identified as CD4^+, […], CD197^+ lymphocytes. α4β7 expression within CD4^+ T memory cells was identified based on staining with the Vedolizumab BV421 complex; staining was analyzed using BD FACSuite software, version 1.0.5. Where applicable, values were normalized to no-peptide controls and expressed as percentages to permit assessment of changes in the indicated parameter. Data were plotted and analyzed using Prism software (version 7; GraphPad, La Jolla, Calif.).

[4] = target: T3, memory CD4+ T cells expressing α4β7 / recombinant MAdCAM1 (Homo sapiens, UniProt P13612+P26010); assay: Potency against memory CD4+ T cells expressing α4β7 to recombinant MAdCAM1; type: cell-based; conditions: cells isolated from human PBMCs
T3 construct: endogenous in cells

[5] = Stability of dosing solutions; type: physicochemical; conditions: 50 mM phosphate buffer pH 7.4, stored at 2-8° C.
Protocol: Dose solutions were formulated in 50 mM phosphate buffer pH 7.4 and were prepared weekly by a qualified pharmacist.

T2 sequence (P13612 34-1032): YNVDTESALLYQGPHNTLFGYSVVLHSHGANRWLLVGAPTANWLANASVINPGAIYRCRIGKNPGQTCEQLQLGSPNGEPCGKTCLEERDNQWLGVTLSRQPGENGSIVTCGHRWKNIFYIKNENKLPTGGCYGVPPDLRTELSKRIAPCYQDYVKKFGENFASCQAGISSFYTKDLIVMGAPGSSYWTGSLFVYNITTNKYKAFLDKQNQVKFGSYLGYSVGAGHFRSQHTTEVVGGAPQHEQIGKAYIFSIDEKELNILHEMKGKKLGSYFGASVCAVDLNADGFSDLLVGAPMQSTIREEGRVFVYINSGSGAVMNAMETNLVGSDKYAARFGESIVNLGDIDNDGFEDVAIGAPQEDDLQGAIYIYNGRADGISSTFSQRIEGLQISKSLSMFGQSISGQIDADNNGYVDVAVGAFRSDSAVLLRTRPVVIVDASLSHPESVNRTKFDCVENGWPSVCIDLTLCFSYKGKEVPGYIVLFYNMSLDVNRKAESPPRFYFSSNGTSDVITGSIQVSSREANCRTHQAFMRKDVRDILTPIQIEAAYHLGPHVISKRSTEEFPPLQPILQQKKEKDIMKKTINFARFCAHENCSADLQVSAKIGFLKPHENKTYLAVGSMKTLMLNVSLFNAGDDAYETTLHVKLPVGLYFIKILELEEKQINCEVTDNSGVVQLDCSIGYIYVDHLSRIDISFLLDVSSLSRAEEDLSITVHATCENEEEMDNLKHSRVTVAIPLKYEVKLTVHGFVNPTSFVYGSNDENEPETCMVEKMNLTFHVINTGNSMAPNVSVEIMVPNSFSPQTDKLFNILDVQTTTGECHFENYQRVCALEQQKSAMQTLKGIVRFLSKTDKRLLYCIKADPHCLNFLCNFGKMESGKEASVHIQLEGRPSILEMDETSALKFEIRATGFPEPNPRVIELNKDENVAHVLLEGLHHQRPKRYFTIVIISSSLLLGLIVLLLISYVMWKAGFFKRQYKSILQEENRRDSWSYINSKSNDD
T2 sequence (P26010 20-798): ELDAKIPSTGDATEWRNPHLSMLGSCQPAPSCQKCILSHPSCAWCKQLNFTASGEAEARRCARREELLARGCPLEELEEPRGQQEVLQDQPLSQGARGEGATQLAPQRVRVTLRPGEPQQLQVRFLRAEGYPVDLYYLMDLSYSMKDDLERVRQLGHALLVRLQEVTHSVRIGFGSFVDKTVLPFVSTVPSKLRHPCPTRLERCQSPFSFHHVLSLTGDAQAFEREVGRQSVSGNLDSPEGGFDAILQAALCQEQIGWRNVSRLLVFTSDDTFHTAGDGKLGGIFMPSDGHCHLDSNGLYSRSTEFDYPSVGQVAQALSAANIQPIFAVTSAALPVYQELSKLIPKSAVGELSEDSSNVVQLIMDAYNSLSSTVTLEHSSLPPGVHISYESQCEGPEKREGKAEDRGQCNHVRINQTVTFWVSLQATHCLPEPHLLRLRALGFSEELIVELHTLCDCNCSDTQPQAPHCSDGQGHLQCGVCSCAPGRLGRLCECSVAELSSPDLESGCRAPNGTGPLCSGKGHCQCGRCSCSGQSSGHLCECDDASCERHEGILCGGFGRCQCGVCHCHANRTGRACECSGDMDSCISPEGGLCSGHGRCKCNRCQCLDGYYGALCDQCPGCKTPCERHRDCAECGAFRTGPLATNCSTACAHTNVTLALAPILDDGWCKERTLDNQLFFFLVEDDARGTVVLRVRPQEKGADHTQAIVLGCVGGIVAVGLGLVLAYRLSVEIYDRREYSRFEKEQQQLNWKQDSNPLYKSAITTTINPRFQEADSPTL
T1 sequence (P13612 34-1032): as the sequence (P13612 34-1032) above
T1 sequence (P26010 20-798): as the sequence (P26010 20-798) above
T3 sequence (P13612 34-1032): as the sequence (P13612 34-1032) above
T3 sequence (P26010 20-798): as the sequence (P26010 20-798) above

CC(C)C[C@@H]1NC(=O)[C@H](C(C)O)NC(=O)[C@H](CC(=O)O)NC(=O)[C@H](CO)NC(=O)[C@H](CCCNC(=N)N)N(C)C(=O)c2ccccc2CSC(C)(C)[C@@H](C(=O)N[C@@H](Cc2ccc(C(C)(C)C)cc2)C(=O)N[C@@H](CCC(=O)O)CC(=O)N[C@H](CCCCNC(=O)COCC(=O)NCCCC[C@@H](NC(=O)C[C@H](CCC(=O)O)NC(=O)[C@H](Cc2ccc(C(C)(C)C)cc2)NC(=O)[C@H]2NC(=O)[C@H](CC(C)C)NC(=O)[C@H](C(C)O)NC(=O)[C@H](CC(=O)O)NC(=O)[C@H](CO)NC(=O)[C@H](CCCNC(=N)N)N(C)C(=O)c3ccccc3CSC2(C)C)C(=O)O)C(=O)O)NC1=O (stereo partly drawn) [Compound A, ((2-Benzyl)-(N-Me-R)-Ser-Asp-Thr-Leu-Pen-(Phe(4-tBlu))-(β-homo-Glu)-(D-Lys)-OH)2 (SEQ ID NO: 5) and linker-DIG diglycolic acid] (I: [NMeR]SD[Thr(3ξ)]L[Pen][Phe(4-tBu)][β3hE][dK]-OH / II: [NMeR]SD[Thr(3ξ)]L[Pen][Phe(4-tBu)][β3hE][dK]-OH; linker I:9-II:9 via Diglycolyl; linker I:N-I:6, II:N-II:6 via X1)
IC50 (α4β7 receptor occupancy; read-out: estimated IC50 for receptor occupancy (converted)): 251 pM
IC80 (α4β7 receptor occupancy; read-out: estimated IC80 for receptor occupancy): 5.9 ng/mL (≈ 2.14 nM)
systemic absorption [1]: < 1%
expression of CCR9, ATRA+/Compound A vs ATRA+/DMSO cultures [2]: did not appear to be affected
expression of integrin α4, ATRA+/Compound A vs ATRA+/DMSO cultures [2]: lower
proportion of integrin β7+ cells, ATRA+/Compound A vs ATRA+/DMSO cultures [2]: lower proportion; also recorded: smaller proportion
bioavailability [3]: < 1%
induced internalization of α4β7, time and concentration dependence (α4β7; CD4+ T memory cells, 10 nM for 0 to 48 h, 0-10 nM for 24 h): time (FIG. 15) and concentration (FIG. 16) dependent
Maximal α4β7 expression reduction (%) (α4β7; Donor 1, normalized to no-peptide control): 53%
Maximal α4β7 expression reduction (%) (α4β7; Donor 2, normalized to no-peptide control): 25%
Maximal α4β7 expression reduction (%) (α4β7; Mean of two donors): 39%
additional incubation after washout until α4β7 expression recovered to control levels (α4β7; human PBMCs, 10 nM 24 h then washout): 5 days and 4 to 5 days
α4β7 expression MFI difference compared to FMO control (4219 MFI) (α4β7; human PBMCs, 10 nM, 24 h): 20.6%
α4β7 expression as measured by MFI (α4β7; human PBMCs, 10 nM, 24 h, without MnCl2): 5090 MFI
IC50 [4]: 265 pM
dosing solutions demonstrated to be stable [5]: 3 months
